Test results published in patent US5587473A, “7-acyl-3-(substituted carbamoyloxy) cephem compounds and process for their preparation” (Eisai Co., Ltd., priority 1990, dated 1996).
≈ marks a conversion by molar mass, not a printed value.

What was measured:
[1] = test system: Serratia marcescens IID620; assay: MIC against Serratia marcescens IID620; type: cell-based; conditions: Table 1
Escherichia coli NIHJ = assay: MIC against Escherichia coli NIHJ; type: cell-based; conditions: Table 1
[2] = test system: Klebsiella pneumoniae IID875; assay: MIC against Klebsiella pneumoniae IID875; type: cell-based; conditions: Table 1
[3] = test system: Staphylococcus aureus 209-P; assay: MIC against Staphylococcus aureus 209-P; type: cell-based; conditions: Table 1
[4] = test system: Haemophilus influenzae IID1638; assay: MIC against Haemophilus influenzae IID1638; type: cell-based; conditions: Table 1
[5] = test system: Morganella morganii IID601; assay: MIC against Morganella morganii IID601; type: cell-based; conditions: Table 1
[6] = Bioavailability by oral administration in mice (urinary excretion); type: in vivo; conditions: mouse, urine, 20 mg/kg, CMC-Na suspension; for dose excreted at 6 h: collected during 6 hours, read-out: Recovery in urea
Experimental: Certain representative compounds according to the present invention were each suspended in a CMC-Na solution. The resulting suspension was administered orally to mice at the dosage of 20 mg/kg. Urea excreted during 6 hours after the administration was collected.

[7] = test system: Haemophilus influenzae E35147; assay: MIC against Haemophilus influenzae E35147; type: cell-based; conditions: Table 4
[8] = test system: Haemophilus influenzae E35147; assay: Treatment of respiratory-infected mice, Haemophilus influenzae E35147; type: in vivo, mouse infected with Haemophilus influenzae; conditions: mouse, oral, 40 mg/kg, 1 hour after inoculation of 4.3 × 10^5 CFU/mouse; counted 24 hours after infection; limit 1.48, no colony = 1; control 5.73 ± 0.58
Experimental: (§1) A bacterium-containing solution was inoculated into the nasal cavity of each mouse, followed by the oral administration of a suspension of one of the compounds in a CMC-Na solution one hour later where the bacterium was Haemophilus influenzae but four hours later where the bacterium was Klebsiella pneumoniae. The number of intrapulmonary viable cells of the bacterium was counted upon an elapsed time of 24 hours after the infection. The measurement limit is represented by the following formula. Log CFU/Lung=1.48 wherein CFU is the colony forming unit. When no colony was observed, the bacterium was regarded as having been eradicated and Log CFU/Lung was calculated to be 1.

[9] = test system: Klebsiella pneumonia E02033; assay: MIC against Klebsiella pneumonia E02033; type: cell-based; conditions: Klebsiella pneumoniae, Table 3
[10] = test system: Klebsiella pneumonia E02033; assay: Treatment of respiratory-infected mice, Klebsiella pneumonia E02033; type: in vivo, mouse infected with Klebsiella pneumonia; conditions: mouse, oral, 10 mg/kg; for Intrapulmonary viable cells: 4 hours after inoculation of 1.4 × 10^3 CFU/mouse, counted 24 hours after infection, limit 1.48, no colony = 1, control 7.31 ± 0.73; for Eradication rate: inoculum 1.4 × 10^3 CFU/mouse, 24 hours after infection, control 0
Experimental: as §1

Compound | MIC [1] | MIC (Escherichia coli NIHJ) | MIC [2] | MIC [3] | MIC [4] | MIC [5] | bioavailability at 6 h [6] | dose excreted at 6 h [6] | MIC [7] | Intrapulmonary viable cells [8] | also measured
1-(Isopropoxycarbonyloxy)ethyl 7β-[2-(2-aminothiazol-4-yl)-2-(Z)-acetoxyiminoacetamido]-3-N,N-dimethylcarbamoyloxymethyl-3-cephem-carboxylate hydrochloride [Example 40] | 0.1 µg/mL | 0.05 µg/mL | 0.05 µg/mL | 0.2 µg/mL | 0.2 µg/mL | 0.05 µg/mL | – | – | – | – | –
1-(Isopropoxycarbonyloxy)ethyl 7β-[2-(2-aminothiazol-4-yl)-2-(Z)-hydroxyiminoacetamido]-3-N,N-dimethylcarbamoyloxymethyl-3-cephem-carboxylate hydrochloride [Example 41] | 0.1 µg/mL | 0.2 µg/mL | 0.2 µg/mL | 0.2 µg/mL | 0.2 µg/mL | 0.1 µg/mL | – | – | – | – | –
7-Amino-3-N,N-dimethylcarbamoyloxymethyl-3-cephem-4-carboxylic acid [Example 39] | 0.05 µg/mL | 0.05 µg/mL | 0.025 µg/mL | 0.2 µg/mL | 0.2 µg/mL | 0.05 µg/mL | – | – | – | – | –
CC(C)(C)C(=O)OCOC(=O)C1=C(COC(N)=O)CS[C@@H]2C(NC(=O)/C(=N\O)c3csc(N)n3)C(=O)N12 (some centres unmarked) [Compound B, Pivaloyloxymethyl 7-[(Z)-2-(2-aminothiazol-4-yl)-2-hydroxyiminoacetamido]-3-carbamoyloxymethyl-3-cephem-4-carboxylate, reference compound] | – | – | – | – | – | – | 17% | 11% | – | – | –
CC(C)OC(=O)OC(C)OC(=O)C1=C(COC(N)=O)CS[C@@H]2C(NC(=O)/C(=N\O)c3csc(N)n3)C(=O)N12 (some centres unmarked) [Compound C, 1-(Isopropyloxycarbonyloxy)ethyl 7-[(Z)-2-(2-aminothiazol-4-yl)-2-hydroxyiminoacetamido]-3-carbamoyloxymethyl-3-cephem-4-carboxylate, reference compound] | – | – | – | – | – | – | 7% | 4.5% | 0.8 µg/mL (≈ 1.4 µM) | 5.50 ± 0.61 Log CFU/Lung | –
CO/N=C(\C(=O)NC1C(=O)N2C(C(=O)OCOC(=O)C(C)(C)C)=C(COC(N)=O)CS[C@H]12)c1csc(N)n1 (some centres unmarked) [Compound D, Pivaloyloxymethyl 7-[(Z)-2-(2-aminothiazol-4-yl)-2-methoxyiminoacetamido]-3-carbamoyloxymethyl-3-cephem-4-carboxylate, reference compound] | – | – | – | – | – | – | 17% | 10.4% | – | – | –
COCC1=C(C(=O)OC(C)OC(=O)OC(C)C)N2C(=O)C(NC(=O)/C(=N\OC)c3csc(N)n3)[C@H]2SC1 (some centres unmarked) [Compound E, 1-(Isopropyloxycarbonyloxy)ethyl 7-[(Z)-2-(2-aminothiazol-4-yl)-2-methoxyiminoacetamido]-3-methoxymethyl-3-cephem-4-carboxylate] | – | – | – | – | – | – | – | – | – | – | MIC [9]: 0.2 µg/mL (≈ 0.359 µM); Intrapulmonary viable cells [10]: 4.26 ± 0.62 log CFU/lung; Eradication rate [10]: 0%
C=CC1=C(C(=O)O)N2C(=O)C(NC(=O)/C(=N\O)c3csc(N)n3)[C@H]2SC1 (some centres unmarked) [Compound F, 7-[(Z)-2-(2-aminothiazol-4-yl)-2-hydroxyiminoacetamido]-3-vinyl-3-cephem-4-carboxylic acid] | – | – | – | – | – | – | – | – | 0.8 µg/mL (≈ 2.02 µM) | 5.16 ± 0.73 Log CFU/Lung | MIC [9]: 0.2 µg/mL (≈ 0.506 µM); Intrapulmonary viable cells [10]: 6.25 ± 0.74 log CFU/lung; Eradication rate [10]: 0%
CN(C)C(=O)OCC1=C(C(=O)OCOC(=O)C(C)(C)C)N2C(=O)C(NC(=O)/C(=N\O)c3csc(N)n3)C2SC1 (centres unmarked) [Example 14, Pivaloyloxymethyl 7-[(Z)-2-(2-aminothiazol-4-yl)-2-hydroxyiminoacetamido]-3-N,N-dimethylcarbamoyloxymethyl-3-cephem-4-carboxylate] | – | – | – | – | – | – | 38% | 18.2% | – | – | –
CC(C)OC(=O)OC(C)OC(=O)C1=C(COC(=O)N(C)C)CSC2C(NC(=O)/C(=N\O)c3csc(N)n3)C(=O)N12 (centres unmarked) [Example 20, 1-(Isopropyloxycarbonyloxy)ethyl 7-[(Z)-2-(2-aminothiazol-4-yl)-2-hydroxyiminoacetamido]-3-N,N-dimethylcarbamoyloxymethyl-3-cephem-4-carboxylate] | – | – | – | – | – | – | 46% | 22% | 0.1 µg/mL (≈ 0.166 µM) | 3.51 ± 0.37 Log CFU/Lung | MIC [9]: 0.1 µg/mL (≈ 0.166 µM); Intrapulmonary viable cells [10]: 1.66 ± 1.02 log CFU/lung; Eradication rate [10]: 50%
CO/N=C(\C(=O)NC1C(=O)N2C(C(=O)OCOC(=O)C(C)(C)C)=C(COC(=O)N(C)C)CSC12)c1csc(N)n1 (centres unmarked) [Example 24, Pivaloyloxymethyl 7-[(Z)-2-(2-aminothiazol-4-yl)-2-methoxyiminoacetamido]-3-N,N-dimethylcarbamoyloxymethyl-3-cephem-4-carboxylate] | – | – | – | – | – | – | 34% | 20% | – | – | –
CC(=O)O/N=C(\C(=O)NC1C(=O)N2C(C(=O)OC(C)OC(=O)OC(C)C)=C(COC(=O)N(C)C)CSC12)c1csc(N)n1 (stereo not drawn) [Example 43, 1-(Isopropoxycarbonyloxy)ethyl 7β-[2-(2-aminothiazol-4-yl)-2-(Z)-acetoxyiminoacetamido]-3-N,N-dimethylcarbamoyloxymethyl-3-cephem-carboxylate] | – | – | – | – | – | – | – | – | 0.2 µg/mL (≈ 0.311 µM) | 4.86 ± 0.60 Log CFU/Lung | –
Benzhydryl 7-formamido-3-N,N-dimethylcarbamoyloxymethyl-3-cephem-4-carboxylate [Example 38] | 0.05 µg/mL | 0.025 µg/mL | 0.025 µg/mL | 0.1 µg/mL | 0.2 µg/mL | 0.05 µg/mL | – | – | – | – | –
